Test results taken from article PMC11440839, “DOTA Conjugate of Bisphosphonate and PSMA-Inhibitor: A Promising Combination for Therapy of Prostate Cancer Related Bone Metastases” (Frontiers in Nuclear Medicine, 2022).

Biological target: T1, PSMA (prostate-specific membrane antigen); glutamate carboxypeptidase II (GCPII) (Homo sapiens, UniProt Q04609)
T1 construct: gene FOLH1; native full-length type II transmembrane protein on intact LNCaP cells; 750 amino acids
Assay: competitive radioligand assay on LNCaP cells
Type: cell-based
Settings: competition with 0.75 nM [68Ga]Ga-PSMA-10, 45 min
Description: competitive radioligand assay on LNCaP cells on PSMA (prostate-specific membrane antigen); glutamate carboxypeptidase II (GCPII)

T1 sequence (Q04609 whole entry): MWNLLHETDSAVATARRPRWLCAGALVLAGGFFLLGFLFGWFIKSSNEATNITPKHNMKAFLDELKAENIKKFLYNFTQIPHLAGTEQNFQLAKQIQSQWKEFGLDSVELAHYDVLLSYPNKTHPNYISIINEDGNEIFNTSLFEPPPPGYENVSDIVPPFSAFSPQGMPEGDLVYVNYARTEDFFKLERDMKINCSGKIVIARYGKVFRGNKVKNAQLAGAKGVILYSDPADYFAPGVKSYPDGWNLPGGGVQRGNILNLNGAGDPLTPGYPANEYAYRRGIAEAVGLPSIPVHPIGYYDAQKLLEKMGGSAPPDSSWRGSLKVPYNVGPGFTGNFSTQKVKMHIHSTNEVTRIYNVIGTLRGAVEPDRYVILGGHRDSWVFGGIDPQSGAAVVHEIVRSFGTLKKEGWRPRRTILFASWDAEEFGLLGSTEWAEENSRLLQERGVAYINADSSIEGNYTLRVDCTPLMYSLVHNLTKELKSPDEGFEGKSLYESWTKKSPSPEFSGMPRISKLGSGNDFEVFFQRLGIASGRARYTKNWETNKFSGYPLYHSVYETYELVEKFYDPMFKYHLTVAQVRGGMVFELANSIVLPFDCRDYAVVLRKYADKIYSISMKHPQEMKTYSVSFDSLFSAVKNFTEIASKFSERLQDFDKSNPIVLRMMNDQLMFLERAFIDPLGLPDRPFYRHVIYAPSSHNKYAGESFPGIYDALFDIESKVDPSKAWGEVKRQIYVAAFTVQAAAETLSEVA

Row | Structure (SMILES) | Ki (metal-free ligand) [nM] | Ki (reference compound, footnote: IC50 values can be found in the earlier paper of the same first author (ref 48), cited from earlier work) [nM]
1 | NCCCC[C@H](NC(=O)CN1CCN(CC(=O)O)CCN(CC(=O)O)CCN(CC(=O)O)CC1)C(=O)NC[C@H]1CC[C@H](C(=O)N[C@@H](Cc2ccc3ccccc3c2)C(=O)NCCCC[C@H](NC(=O)N[C@@H](CCC(=O)O)C(=O)O)C(=O)O)CC1 [compound 12, DOTA-L-Lys-PSMA-617] | 19.7 ± 3.3 | –
2 | O=C(O)CC[C@H](NC(=O)N[C@@H](CCCCNC(=O)[C@H](Cc1ccc2ccccc2c1)NC(=O)[C@H]1CC[C@H](CNC(=O)[C@H](CCCCNc2c(NCCC(O)(P(=O)(O)O)P(=O)(O)O)c(=O)c2=O)NC(=O)CN2CCN(CC(=O)O)CCN(CC(=O)O)CCN(CC(=O)O)CC2)CC1)C(=O)O)C(=O)O [compound 13, DOTA-L-Lys(SA.Pam)-PSMA-617] | 52.6 ± 3.5 | –
3 | O=C(O)CC[C@H](NC(=O)N[C@@H](CCCCNC(=O)[C@H](Cc1ccc2ccccc2c1)NC(=O)[C@H]1CC[C@H](CNC(=O)CN2CCN(CC(=O)O)CCN(CC(=O)O)CCN(CC(=O)O)CC2)CC1)C(=O)O)C(=O)O [PSMA-617] | – | 6.9 ± 1.3
